The structures appear in SMILES notation.

This is an account of results in patent publication US7034035B2, “Fungicidal mono-, bi-, and tri-cycloheteroalkyl amides and their compositions, methods of use and preparation” (priority 1999, dated 2006).

Experiment [1] deals with Rhizoctonia solani (RHIZSO). Kind of experiment: microbe, parasite or virus in culture. It is filed as cell-based.
The next experiment concerns Ustilago maydis (USTIMA). Kind of experiment: microbe, parasite or virus in culture. Format: cell-based.
Further: test concentration or dose not given here.

As for `COc1ccnc(C(=O)NC2CCCC2O)c1O` (stereo not shown) [Compound 248], the “RHIZSO in vitro Growth Inhibition” value in experiment [1] is given as “− (key: +: at least 80% growth inhibition; −: less than 80% growth inhibition)”. Besides, in the experiment on Ustilago maydis (USTIMA), the “USTIMA in vitro Growth Inhibition” value is “− (key: +: at least 80% growth inhibition; −: less than 80% growth inhibition)”.
With `COc1ccnc(C(=O)N[C@H]2[C@@H](OC(C)=O)O[C@H](COC(C)=O)[C@@H](OC(C)=O)[C@@H]2OC(C)=O)c1O` [Compound 335], the “RHIZSO in vitro Growth Inhibition” value in experiment [1] is on record as “− (key: +: at least 80% growth inhibition; −: less than 80% growth inhibition)”. For the same compound, the “USTIMA in vitro Growth Inhibition” value in the experiment on Ustilago maydis (USTIMA) is “− (key: +: at least 80% growth inhibition; −: less than 80% growth inhibition)”.
For `COc1ccnc(C(=O)NC2COC(C)C2)c1O` (stereo not shown) [Compound 310], the “RHIZSO in vitro Growth Inhibition” value in experiment [1] is listed as “− (key: +: at least 80% growth inhibition; −: less than 80% growth inhibition)”. Also, the “USTIMA in vitro Growth Inhibition” value with Ustilago maydis (USTIMA) is reported as “− (key: +: at least 80% growth inhibition; −: less than 80% growth inhibition)”.
As for `COc1ccnc(C(=O)NC2CC(C)(C)CC(C)(C(=O)OCCC(C)(C)C)C2)c1O` (stereo not shown) [Compound 261], the “RHIZSO in vitro Growth Inhibition” value in experiment [1] was “− (key: +: at least 80% growth inhibition; −: less than 80% growth inhibition)”. Besides, the “USTIMA in vitro Growth Inhibition” value with Ustilago maydis (USTIMA) is reported as “− (key: +: at least 80% growth inhibition; −: less than 80% growth inhibition)”.
For the compound `O=C(Nc1cccc(Cl)c1)c1ncccc1O` [Compound 212], the “RHIZSO in vitro Growth Inhibition” value in experiment [1] is “− (key: +: at least 80% growth inhibition; −: less than 80% growth inhibition)”. In the experiment with Ustilago maydis (USTIMA), the “USTIMA in vitro Growth Inhibition” value is “− (key: +: at least 80% growth inhibition; −: less than 80% growth inhibition)”.
Regarding `COc1ccnc(C(=O)NC2C[C@H](C)O[C@@](C)(Cc3ccccc3)C2)c1O` (stereo partly shown) [Compound 312], the “RHIZSO in vitro Growth Inhibition” value in experiment [1] is given as “− (key: +: at least 80% growth inhibition; −: less than 80% growth inhibition)”. Moreover, the “USTIMA in vitro Growth Inhibition” value in the experiment on Ustilago maydis (USTIMA) is “− (key: +: at least 80% growth inhibition; −: less than 80% growth inhibition)”.
For the compound `C[C@@H](NC(=O)c1ncccc1O)c1cccc2ccccc12` [Compound 231], in experiment [1], the “RHIZSO in vitro Growth Inhibition” value is reported as “− (key: +: at least 80% growth inhibition; −: less than 80% growth inhibition)”. For the same compound, in the experiment on Ustilago maydis (USTIMA), the “USTIMA in vitro Growth Inhibition” value is recorded as “− (key: +: at least 80% growth inhibition; −: less than 80% growth inhibition)”.
As to `COc1ccnc(C(=O)NCC#CCCl)c1O` [Compound 239], the “RHIZSO in vitro Growth Inhibition” value in experiment [1] is reported as “− (key: +: at least 80% growth inhibition; −: less than 80% growth inhibition)”. In addition, the “USTIMA in vitro Growth Inhibition” value in the experiment on Ustilago maydis (USTIMA) was “− (key: +: at least 80% growth inhibition; −: less than 80% growth inhibition)”.
In the case of `O=C(Nc1cccc(C(F)(F)F)c1)c1ncccc1O` [Compound 214], the “RHIZSO in vitro Growth Inhibition” value in experiment [1] is listed as “− (key: +: at least 80% growth inhibition; −: less than 80% growth inhibition)”. Also, in the experiment on Ustilago maydis (USTIMA), the “USTIMA in vitro Growth Inhibition” value is listed as “− (key: +: at least 80% growth inhibition; −: less than 80% growth inhibition)”.
Take `COc1ccnc(C(=O)NC2CC(C)(C)C(OC)C(C)(C)C2)c1O` (stereo not shown) [Compound 265]: in experiment [1], the “RHIZSO in vitro Growth Inhibition” value was “− (key: +: at least 80% growth inhibition; −: less than 80% growth inhibition)”. Besides, the “USTIMA in vitro Growth Inhibition” value with Ustilago maydis (USTIMA) is reported as “− (key: +: at least 80% growth inhibition; −: less than 80% growth inhibition)”.
Take `CC(=O)OC1CCC(NC(=O)c2ncccc2O)CC1` (stereo not shown) [Compound 209]: in experiment [1], the “RHIZSO in vitro Growth Inhibition” value is given as “− (key: +: at least 80% growth inhibition; −: less than 80% growth inhibition)”. Further, in the experiment on Ustilago maydis (USTIMA), the “USTIMA in vitro Growth Inhibition” value is recorded as “− (key: +: at least 80% growth inhibition; −: less than 80% growth inhibition)”.
Take `COc1ccnc(C(=O)NC2CCN(C(=O)CCc3ccccc3)CC2)c1O` [Compound 309]: in experiment [1], the “RHIZSO in vitro Growth Inhibition” value was “− (key: +: at least 80% growth inhibition; −: less than 80% growth inhibition)”. Moreover, the “USTIMA in vitro Growth Inhibition” value with Ustilago maydis (USTIMA) was “− (key: +: at least 80% growth inhibition; −: less than 80% growth inhibition)”.
For `COc1ccnc(C(=O)N[C@@H]2OC[C@@H](OC(C)=O)[C@H](OC(C)=O)[C@H]2OC(C)=O)c1O` [Compound 330], the “RHIZSO in vitro Growth Inhibition” value in experiment [1] was “− (key: +: at least 80% growth inhibition; −: less than 80% growth inhibition)”. Further, the “USTIMA in vitro Growth Inhibition” value with Ustilago maydis (USTIMA) was “− (key: +: at least 80% growth inhibition; −: less than 80% growth inhibition)”.
`COc1ccnc(C(=O)NC2CC(C)(C)C(=O)C(C)(C)C2)c1O` [Compound 266]: the “RHIZSO in vitro Growth Inhibition” value in experiment [1] was “− (key: +: at least 80% growth inhibition; −: less than 80% growth inhibition)”. In addition, the “USTIMA in vitro Growth Inhibition” value in the experiment with Ustilago maydis (USTIMA) is recorded as “− (key: +: at least 80% growth inhibition; −: less than 80% growth inhibition)”.
As for `COc1ccnc(C(=O)N[C@@H]2CC3CC2[C@@H](c2ccccc2)[C@@H]3C(=O)OC(C)C)c1O` (stereo partly shown) [Compound 300], the “RHIZSO in vitro Growth Inhibition” value in experiment [1] is listed as “+ (key: +: at least 80% growth inhibition; −: less than 80% growth inhibition)”. Besides, in the experiment on Ustilago maydis (USTIMA), the “USTIMA in vitro Growth Inhibition” value is “− (key: +: at least 80% growth inhibition; −: less than 80% growth inhibition)”.
The matching figures for `COC(=O)C(CO)NC(=O)c1nccc(OC)c1O` (stereo not shown) [Compound 340]: “− (key: +: at least 80% growth inhibition; −: less than 80% growth inhibition)” and “− (key: +: at least 80% growth inhibition; −: less than 80% growth inhibition)”.
The matching figures for `COc1ccnc(C(=O)N[C@@H](CO)C(=O)O[C@@H](C)[C@H](OC(=O)C(C)C)[C@@H](Cc2ccccc2)C(=O)O)c1O` [Compound 341]: “− (key: +: at least 80% growth inhibition; −: less than 80% growth inhibition)” and “− (key: +: at least 80% growth inhibition; −: less than 80% growth inhibition)”.
Consider `COc1ccnc(C(=O)NC2CC(C(F)(F)F)CC(C(F)(F)F)C2)c1O` (stereo not shown) [Compound 256], for which, in experiment [1], the “RHIZSO in vitro Growth Inhibition” value is reported as “− (key: +: at least 80% growth inhibition; −: less than 80% growth inhibition)”. Besides, the “USTIMA in vitro Growth Inhibition” value in the experiment on Ustilago maydis (USTIMA) was “− (key: +: at least 80% growth inhibition; −: less than 80% growth inhibition)”.
Regarding `Cc1ccnc(C(=O)NC2CC(C)(C)CC(C)(C)C2)c1O` [Compound 236], the “RHIZSO in vitro Growth Inhibition” value in experiment [1] is given as “− (key: +: at least 80% growth inhibition; −: less than 80% growth inhibition)”. The “USTIMA in vitro Growth Inhibition” value in the experiment with Ustilago maydis (USTIMA) is recorded as “− (key: +: at least 80% growth inhibition; −: less than 80% growth inhibition)”.
`COc1ccnc(C(=O)NCCCc2cccnc2)c1O` [Compound 243]: the “RHIZSO in vitro Growth Inhibition” value in experiment [1] is “− (key: +: at least 80% growth inhibition; −: less than 80% growth inhibition)”. Moreover, the “USTIMA in vitro Growth Inhibition” value with Ustilago maydis (USTIMA) is “− (key: +: at least 80% growth inhibition; −: less than 80% growth inhibition)”.
For the compound `CCCO[C@@H]1[C@@H](OCCC)[C@H](OCCC)CO[C@H]1NC(=O)c1nccc(OC)c1O` [Compound 331], the “RHIZSO in vitro Growth Inhibition” value in experiment [1] is listed as “− (key: +: at least 80% growth inhibition; −: less than 80% growth inhibition)”. The “USTIMA in vitro Growth Inhibition” value in the experiment with Ustilago maydis (USTIMA) was “− (key: +: at least 80% growth inhibition; −: less than 80% growth inhibition)”.
As to `COc1ccnc(C(=O)N[C@H]2CC3CC2C[C@@H]3COCc2cccc(C(F)(F)F)c2)c1O` (stereo partly shown) [Compound 296], the “RHIZSO in vitro Growth Inhibition” value in experiment [1] is “+ (key: +: at least 80% growth inhibition; −: less than 80% growth inhibition)”. Moreover, the “USTIMA in vitro Growth Inhibition” value in the experiment with Ustilago maydis (USTIMA) is given as “− (key: +: at least 80% growth inhibition; −: less than 80% growth inhibition)”.
The matching figures for `COc1ccnc(C(=O)NC2C3(C)CCC(C3)C2(C)C)c1O` (stereo not shown) [Compound 288]: “+ (key: +: at least 80% growth inhibition; −: less than 80% growth inhibition)” and “− (key: +: at least 80% growth inhibition; −: less than 80% growth inhibition)”.
